Results from PubChem BioAssay AID2060900 (Molecular Pharmacology Branch, DTP, NCI, 2025).
Each block holds one compound with its values, some of them ahead of it.

Tested on: 521955-158-R2-J5-PDC complex spheroids, viability
Experiment: Anticancer human tumor 521955-158-R2-J5-PDC patient-derived pancreatic carcinoma cell line growth inhibition [RAS]
Conditions: for IC50: curve of first compound; for viability, T/C: stronger effect = lower value
Excerpt: RAS pathway inhibitors in Combinations in Complex Spheroids
A high-throughput screen of multi-cell type tumor spheroids was designed to identify active combinations of RAS pathway inhibitors and targeted small molecules. Complex spheroids include a stromal component modeled by human endothelial cells (HUVEC) and fibroblasts modeled by human mesenchymal stem cells (MSCs). The concentration ranges selected for each drug and investigational agent were based upon clinically achievable concentrations if the clinical Cmax of the agent was known.
Compounds. The drugs and investigational agents: abemaciclib (NSC768073), cobimetinib (NSC768068), divarasib (GDC6063, NSC841802), docetaxel (NSC628503), GDC-1971 (RLY-1971, NSC841576), gemcitabine (NSC613327), inavolisib (NSC800729), ipatasertib (NSC767898), KB-0742 (NSC834161), MRTX-1133 (NSC836407), osimertinib (NSC779217), RMC-4630 (NSC839698), RMC-6236 (NSC851965), RMC-6291 (NSC852671), Ro-3306 (NSC812927), sapanisertib (NSC764658), SN-38 (NSC673596), staurosporine (NSC755774), SY5609 (NSC837396), and tovorafenib (DAY101, NSC766906), were obtained from the National Cancer Institute (NCI) Developmental Therapeutics Program Chemical Repository. The FDA-approved anticancer drug set is available from the NCI Developmental Therapeutics Program. […] The stock solutions were prepared in dimethyl sulfoxide (DMSO, Sigma-Aldrich, St. Louis, MO, cat. D2650) at 800-fold the tested concentration and stored at -70 degrees C prior to their use. All drugs and investigational agents were tested over a range starting from a high concentration at or near the clinical Cmax and decreasing in half-log increments. If the clinical Cmax for an agent had not been determined, the highest concentration tested was 10 microM.
Cell Culture. All cells were maintained in an incubator at 37 degrees C and 5% CO2 with 95% humidity. The PDC lines were cultured according to standard operating procedures established by the NCI PDMR. All PDCs were thawed and cultured in Matrigel-coated flasks prepared with a working solution of 1X Ham's F-12 nutrient mix, without supplementation (Invitrogen, Waltham, MA, cat. 11765054), 100 U/mL penicillin-streptomycin (Invitrogen, cat. 15140122), and 2.5% Matrigel (Corning Inc., Corning, NY, cat. 354248) for the first three passages. The 362531-283-R-J2-PDC and 782815-120-R-J1-PDC lines were cultured in 6C/Colon 1B media, which includes advanced DMEM/F-12 (Thermo Fisher Scientific, cat. 12634028), 10 mM HEPES (Thermo Fisher Scientific, cat. 15630080), 1X GlutaMAX supplement (Thermo Fisher Scientific, cat. 35050061), 0.1 mg/mL primocin (InvivoGen, San Diego, CA, cat. ant-pm-2), 10% defined fetal bovine serum, heat inactivated (HyClone Laboratories Inc., Logan, UT, cat. SH30070.03HI), 50% L-WRN conditioned media (ATCC, cat. CRL-3276), 1.25 mM N-Acetyl-L-cysteine (Sigma-Aldrich, cat. A9165), 10 mM nicotinamide (Sigma-Aldrich, cat. N0636), 1X B-27 supplement (Thermo Fisher Scientific, cat. 17504044), 1X N-2 supplement (Thermo Fisher Scientific, cat. 17502048), 50 ng/mL human EGF (Thermo Fisher Scientific, cat. PHG0311), and 10 microM Y-27632 dihydrochloride (Tocris Bioscience, cat. 1254). The K12877-001-R-J1-PDC line was cultured in 6I media, which includes all 6C/Colon 1B media plus 10 ng/mL human FGF-10 (PeproTech, cat. 100-26), 1 ng/mL human FGF-2 (PeproTech, cat. 100-18B), 1 µM prostaglandin E2 (Tocris Bioscience, cat. 2296), […] hydrocortisone (Sigma-Aldrich, cat. H4001), and […] bovine insulin (Sigma-Aldrich, cat. I6634). The K86415-001-R-J1-PDC line was cultured in 6D media, which includes all 6C/Colon 1B media components minus the L-WRN conditioned media. The 485176-168-R4-J1-PDC was cultured in PANC media, which includes all 6C/Colon 1B media plus 100 ng/mL human FGF-10 (PeproTech, cat. 100-26), 500 nM SB-431542 (Selleckchem, cat. S1067), and 10 nM gastrin (Tocris Bioscience, cat. 3006). […]

[1] = second compound 0.00316 µM, first compound 0.0316 µM
[2] = second compound 0.00316 µM, first compound 0.1 µM
[3] = second compound 0.00316 µM, first compound 0.316 µM
[4] = second compound 0.00316 µM, first compound 1 µM
[5] = second compound 0.01 µM, first compound 0.0316 µM
[6] = second compound 0.01 µM, first compound 0.1 µM
[7] = second compound 0.01 µM, first compound 0.316 µM
[8] = second compound 0.01 µM, first compound 1 µM
[9] = second compound 0.0316 µM, first compound 0.0316 µM
[10] = second compound 0.0316 µM, first compound 0.1 µM
[11] = second compound 0.0316 µM, first compound 0.316 µM
[12] = second compound 0.0316 µM, first compound 1 µM
[13] = second compound 0.1 µM, first compound 0.0316 µM
[14] = second compound 0.1 µM, first compound 0.1 µM
[15] = second compound 0.1 µM, first compound 0.316 µM
[16] = second compound 0.1 µM, first compound 1 µM
[17] = second compound 0.316 µM, first compound 0.0316 µM
[18] = second compound 0.316 µM, first compound 0.1 µM
[19] = second compound 0.316 µM, first compound 0.316 µM
[20] = second compound 0.316 µM, first compound 1 µM
[21] = second compound 1 µM, first compound 0.0316 µM
[22] = second compound 1 µM, first compound 0.1 µM
[23] = second compound 1 µM, first compound 0.316 µM
[24] = second compound 1 µM, first compound 1 µM
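Note: compound exposure lasted seven days before the viability read.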
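Throughout, for viability, T/C: spheroids also contain HUVEC endothelial cells and mesenchymal stem cells as stroma.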

IC50 (second compound 0.00316 µM): 136 nM
IC50 (second compound 0.01 µM): 225 nM
IC50 (second compound 0.0316 µM): 273 nM
IC50 (second compound 0.1 µM): 144 nM
IC50 (second compound 0.316 µM): 258 nM
IC50 (second compound 1 µM): 233 nM
SMILES: Nc1ccn(C2OC(CO)C(O)C2(F)F)c(=O)n1 (centres undefined) + C=CC(=O)N1CCN(c2nc(OCC3CCCN3C)nc3c(F)c(-c4nc(N)cc(C)c4C(F)(F)F)c(Cl)cc23)C(C)C1
viability, T/C (second compound 0.00316 µM, first compound 0.00316 µM): 94.2%
viability, T/C (second compound 0.00316 µM, first compound 0.01 µM): 88.7%
viability, T/C [1]: 65%
viability, T/C [2]: 59%
viability, T/C [3]: 36.6%
viability, T/C [4]: 12.9%
viability, T/C (second compound 0.01 µM, first compound 0.00316 µM): 94.2%
viability, T/C (second compound 0.01 µM, first compound 0.01 µM): 89%
viability, T/C [5]: 75.5%
viability, T/C [6]: 73.3%
viability, T/C [7]: 39.8%
viability, T/C [8]: 15.3%
viability, T/C (second compound 0.0316 µM, first compound 0.00316 µM): 93.2%
viability, T/C (second compound 0.0316 µM, first compound 0.01 µM): 93.8%
viability, T/C [9]: 72.4%
viability, T/C [10]: 67%
viability, T/C [11]: 52.7%
viability, T/C [12]: 13%
viability, T/C (second compound 0.1 µM, first compound 0.00316 µM): 119%
viability, T/C (second compound 0.1 µM, first compound 0.01 µM): 88.6%
viability, T/C [13]: 72.4%
viability, T/C [14]: 50.5%
viability, T/C [15]: 51.5%
viability, T/C [16]: 11.9%
viability, T/C (second compound 0.316 µM, first compound 0.00316 µM): 103%
viability, T/C (second compound 0.316 µM, first compound 0.01 µM): 93.4%
viability, T/C [17]: 77.1%
viability, T/C [18]: 70.1%
viability, T/C [19]: 49.6%
viability, T/C [20]: 11.7%
viability, T/C (second compound 1 µM, first compound 0.00316 µM): 106%
viability, T/C (second compound 1 µM, first compound 0.01 µM): 100%
viability, T/C [21]: 74.4%
viability, T/C [22]: 63%
viability, T/C [23]: 54.8%
viability, T/C [24]: 13%

IC50 (second compound 0.00316 µM): > 10000 nM
IC50 (second compound 0.01 µM): > 10000 nM
IC50 (second compound 0.0316 µM): > 10000 nM
IC50 (second compound 0.1 µM): > 10000 nM
IC50 (second compound 0.316 µM): > 10000 nM
IC50 (second compound 1 µM): 6750 nM
SMILES: C[C@@H](NC(=O)c1ncnc(N)c1Cl)c1ncc(C(=O)Nc2cc(C(F)(F)F)c(Cl)cn2)s1 + C=CC(=O)N1CCN(c2nc(OCC3CCCN3C)nc3c(F)c(-c4nc(N)cc(C)c4C(F)(F)F)c(Cl)cc23)C(C)C1
viability, T/C [1]: 105%
viability, T/C [2]: 90.8%
viability, T/C [3]: 103%
viability, T/C [4]: 103%
viability, T/C (second compound 0.00316 µM, first compound 3.16 µM): 89.3%
viability, T/C (second compound 0.00316 µM, first compound 10 µM): 56.3%
viability, T/C [5]: 107%
viability, T/C [6]: 134%
viability, T/C [7]: 84.8%
viability, T/C [8]: 130%
viability, T/C (second compound 0.01 µM, first compound 3.16 µM): 82.9%
viability, T/C (second compound 0.01 µM, first compound 10 µM): 60.2%
viability, T/C [9]: 101%
viability, T/C [10]: 138%
viability, T/C [11]: 92.8%
viability, T/C [12]: 129%
viability, T/C (second compound 0.0316 µM, first compound 3.16 µM): 80.7%
viability, T/C (second compound 0.0316 µM, first compound 10 µM): 53.2%
viability, T/C [13]: 144%
viability, T/C [14]: 132%
viability, T/C [15]: 112%
viability, T/C [16]: 86.5%
viability, T/C (second compound 0.1 µM, first compound 3.16 µM): 73.1%
viability, T/C (second compound 0.1 µM, first compound 10 µM): 54.8%
viability, T/C [17]: 164%
viability, T/C [18]: 179%
viability, T/C [19]: 96%
viability, T/C [20]: 96.2%
viability, T/C (second compound 0.316 µM, first compound 3.16 µM): 79.5%
viability, T/C (second compound 0.316 µM, first compound 10 µM): 57.1%
viability, T/C [21]: 198%
viability, T/C [22]: 93.3%
viability, T/C [23]: 88.5%
viability, T/C [24]: 76.5%
viability, T/C (second compound 1 µM, first compound 3.16 µM): 74.2%
viability, T/C (second compound 1 µM, first compound 10 µM): 56.6%
